Test system: KRAS patient-derived spheroids with HUVEC/MSC, viability
Assay: Anticancer human tumor 323965-272-R-J2-PDC patient-derived pancreatic carcinoma cell line growth inhibition [KRAS2]
Conditions: for IC50: curve of first compound; for viability, T/C: stronger effect = lower value; active = viability on the fitted dose curve at most 10% of control; inactive = the rest
How it was run: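 Combination screen of spheroid viability in tumor-cell co-cultures with endothelial (HUVEC) and mesenchymal stem cell stroma. Each agent was tested in half-log dilutions, topping at clinical Cmax or at 10 microM without a known Cmax.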

[1] = second compound 0.1 µM, first compound 0.000316 µM
[2] = second compound 0.1 µM, first compound 0.001 µM
[3] = second compound 0.1 µM, first compound 0.00316 µM
[4] = second compound 0.1 µM, first compound 0.01 µM
[5] = second compound 0.1 µM, first compound 0.0316 µM
[6] = second compound 0.316 µM, first compound 0.000316 µM
[7] = second compound 0.316 µM, first compound 0.001 µM
[8] = second compound 0.316 µM, first compound 0.00316 µM
[9] = second compound 0.316 µM, first compound 0.01 µM
[10] = second compound 0.316 µM, first compound 0.0316 µM
[11] = second compound 1 µM, first compound 0.000316 µM
[12] = second compound 1 µM, first compound 0.001 µM
[13] = second compound 1 µM, first compound 0.00316 µM
[14] = second compound 1 µM, first compound 0.01 µM
[15] = second compound 1 µM, first compound 0.0316 µM
[16] = second compound 3.16 µM, first compound 0.000316 µM
[17] = second compound 3.16 µM, first compound 0.001 µM
[18] = second compound 3.16 µM, first compound 0.00316 µM
[19] = second compound 3.16 µM, first compound 0.01 µM
[20] = second compound 3.16 µM, first compound 0.0316 µM
[21] = second compound 10 µM, first compound 0.000316 µM
[22] = second compound 10 µM, first compound 0.001 µM
[23] = second compound 10 µM, first compound 0.00316 µM
[24] = second compound 10 µM, first compound 0.01 µM
[25] = second compound 10 µM, first compound 0.0316 µM
[26] = second compound 0.1 µM, first compound 0.1 µM
[27] = second compound 0.316 µM, first compound 0.1 µM
[28] = second compound 1 µM, first compound 0.1 µM
[29] = second compound 3.16 µM, first compound 0.1 µM
[30] = second compound 10 µM, first compound 0.1 µM
[31] = second compound 0.1 µM, first compound 0.316 µM
[32] = second compound 0.1 µM, first compound 1 µM
[33] = second compound 0.1 µM, first compound 3.16 µM
[34] = second compound 0.1 µM, first compound 10 µM
[35] = second compound 0.316 µM, first compound 0.316 µM
[36] = second compound 0.316 µM, first compound 1 µM
[37] = second compound 0.316 µM, first compound 3.16 µM
[38] = second compound 0.316 µM, first compound 10 µM
[39] = second compound 1 µM, first compound 0.316 µM
[40] = second compound 1 µM, first compound 1 µM
[41] = second compound 1 µM, first compound 3.16 µM
[42] = second compound 1 µM, first compound 10 µM
[43] = second compound 3.16 µM, first compound 0.316 µM
[44] = second compound 3.16 µM, first compound 1 µM
[45] = second compound 3.16 µM, first compound 3.16 µM
[46] = second compound 3.16 µM, first compound 10 µM
[47] = second compound 10 µM, first compound 0.316 µM
[48] = second compound 10 µM, first compound 1 µM
[49] = second compound 10 µM, first compound 3.16 µM
[50] = second compound 10 µM, first compound 10 µM
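Note: spheroids exposed to agents for 7 days.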
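Throughout, for viability, T/C: 100% = DMSO vehicle control viability.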

CC(=O)Nc1cccc(-n2c(=O)n(C3CC3)c(=O)c3c(Nc4ccc(I)cc4F)n(C)c(=O)c(C)c32)c1 + COc1cc2nc(C)nc(NC(C)c3cc(N)cc(C(F)(F)F)c3)c2cc1OC1CCOC1
0.949 nM: IC50 (second compound 0.316 µM)
1.6 nM: IC50 (second compound 0.1 µM)
0.713 nM: IC50 (second compound 1 µM)
inactive: viability, T/C (second compound 0.1 µM, first compound 0.0001 µM) 84.1% | viability, T/C [1] 67.3% | viability, T/C [2] 54.5% | viability, T/C [3] 43.7% | viability, T/C [4] 32.6% | viability, T/C [5] 23.7% | viability, T/C (second compound 0.316 µM, first compound 0.0001 µM) 67.8% | viability, T/C [6] 59.6% | viability, T/C [7] 48.9% | viability, T/C [8] 39.6% | viability, T/C [9] 31.9% | viability, T/C [10] 22% | viability, T/C (second compound 1 µM, first compound 0.0001 µM) 73.5% | viability, T/C [11] 60.4% | viability, T/C [12] 43.5% | viability, T/C [13] 37.4% | viability, T/C [14] 28.5% | viability, T/C [15] 20.8% | viability, T/C (second compound 3.16 µM, first compound 0.0001 µM) 73% | viability, T/C [16] 57.9% | viability, T/C [17] 44.6% | viability, T/C [18] 36.3% | viability, T/C [19] 28.7% | viability, T/C [20] 18.4% | viability, T/C (second compound 10 µM, first compound 0.0001 µM) 80.7% | viability, T/C [21] 68.2% | viability, T/C [22] 49.2% | viability, T/C [23] 36.3% | viability, T/C [24] 26.1% | viability, T/C [25] 12.7%
1.09 nM: IC50 (second compound 10 µM)
0.703 nM: IC50 (second compound 3.16 µM)

CC(C)n1nc(-c2ccc3oc(N)nc3c2)c2c(N)ncnc21 + COc1cc2nc(C)nc(NC(C)c3cc(N)cc(C(F)(F)F)c3)c2cc1OC1CCOC1
0.736 nM: IC50 (second compound 1 µM)
0.955 nM: IC50 (second compound 0.316 µM)
inactive: viability, T/C [1] 67.1% | viability, T/C [2] 60.1% | viability, T/C [3] 40.8% | viability, T/C [4] 26.4% | viability, T/C [5] 19% | viability, T/C [26] 14.5% | viability, T/C [6] 64.5% | viability, T/C [7] 48.2% | viability, T/C [8] 37.1% | viability, T/C [9] 23.8% | viability, T/C [10] 17.4% | viability, T/C [27] 15.7% | viability, T/C [11] 58.1% | viability, T/C [12] 47.6% | viability, T/C [13] 33.1% | viability, T/C [14] 24.8% | viability, T/C [15] 16.7% | viability, T/C [28] 14% | viability, T/C [16] 54.4% | viability, T/C [17] 49.4% | viability, T/C [18] 30.2% | viability, T/C [19] 17.7% | viability, T/C [20] 12.9% | viability, T/C [29] 11.8% | viability, T/C [21] 58.5% | viability, T/C [22] 60.2% | viability, T/C [23] 32.3% | viability, T/C [24] 18.4% | viability, T/C [25] 9.07% | viability, T/C [30] 8.86%
0.769 nM: IC50 (second compound 3.16 µM)
1.83 nM: IC50 (second compound 0.1 µM)
1.41 nM: IC50 (second compound 10 µM)

CC1(C)CCC(CN2CCN(c3ccc(C(=O)NS(=O)(=O)c4ccc(NCC5CCOCC5)c([N+](=O)[O-])c4)c(Oc4cnc5[nH]ccc5c4)c3)CC2)=C(c2ccc(Cl)cc2)C1 + COc1cc2nc(C)nc(NC(C)c3cc(N)cc(C(F)(F)F)c3)c2cc1OC1CCOC1
active: viability, T/C [34] 2.78% | viability, T/C [38] 3.87% | viability, T/C [42] 2.67% | viability, T/C [45] 6.04% | viability, T/C [46] 2.28% | viability, T/C [49] 3.41% | viability, T/C [50] 1.41%
1520 nM: IC50 (second compound 0.1 µM)
1340 nM: IC50 (second compound 3.16 µM)
591 nM: IC50 (second compound 10 µM)
1570 nM: IC50 (second compound 0.316 µM)
inactive: viability, T/C [5] 76.6% | viability, T/C [26] 80.4% | viability, T/C [31] 67.8% | viability, T/C [32] 72.2% | viability, T/C [33] 11.2% | viability, T/C [10] 67.7% | viability, T/C [27] 77.3% | viability, T/C [35] 75.2% | viability, T/C [36] 71.5% | viability, T/C [37] 16.8% | viability, T/C [15] 76.2% | viability, T/C [28] 84.2% | viability, T/C [39] 84.3% | viability, T/C [40] 60.3% | viability, T/C [41] 12.5% | viability, T/C [20] 87.4% | viability, T/C [29] 80.6% | viability, T/C [43] 84.7% | viability, T/C [44] 65.1% | viability, T/C [25] 80.7% | viability, T/C [30] 79.9% | viability, T/C [47] 61.1% | viability, T/C [48] 41.6%
1290 nM: IC50 (second compound 1 µM)

COc1cc(Nc2ncc3c(n2)-c2ccc(Cl)cc2C(c2c(F)cccc2OC)=NC3)ccc1C(=O)O + COc1cc2nc(C)nc(NC(C)c3cc(N)cc(C(F)(F)F)c3)c2cc1OC1CCOC1
73.5 nM: IC50 (second compound 0.316 µM)
92.4 nM: IC50 (second compound 0.1 µM)
inactive: viability, T/C [5] 76.5% | viability, T/C [26] 47.3% | viability, T/C [31] 35.6% | viability, T/C [32] 44.1% | viability, T/C [33] 53.4% | viability, T/C [34] 59.1% | viability, T/C [10] 66.2% | viability, T/C [27] 45.3% | viability, T/C [35] 35.7% | viability, T/C [36] 37.5% | viability, T/C [37] 51.5% | viability, T/C [38] 58.5% | viability, T/C [15] 62.2% | viability, T/C [28] 39.6% | viability, T/C [39] 33% | viability, T/C [40] 38.8% | viability, T/C [41] 44.9% | viability, T/C [42] 51.2% | viability, T/C [20] 56.8% | viability, T/C [29] 34.4% | viability, T/C [43] 28.4% | viability, T/C [44] 37.8% | viability, T/C [45] 44.3% | viability, T/C [46] 51.1% | viability, T/C [25] 63.4% | viability, T/C [30] 20.3% | viability, T/C [47] 24% | viability, T/C [48] 41.6% | viability, T/C [49] 42.8% | viability, T/C [50] 36.9%
< 31.6 nM: IC50 (second compound 1 µM) | IC50 (second compound 3.16 µM) | IC50 (second compound 10 µM)

COc1cc2nccc(Oc3ccc(NC(=O)C4(C(=O)Nc5ccc(F)cc5)CC4)cc3)c2cc1OC + COc1cc2nc(C)nc(NC(C)c3cc(N)cc(C(F)(F)F)c3)c2cc1OC1CCOC1
> 10000 nM: IC50 (second compound 0.1 µM) | IC50 (second compound 0.316 µM) | IC50 (second compound 1 µM)
3890 nM: IC50 (second compound 10 µM)
9980 nM: IC50 (second compound 3.16 µM)
inactive: viability, T/C [5] 86.5% | viability, T/C [26] 86.5% | viability, T/C [31] 84.1% | viability, T/C [32] 86.5% | viability, T/C [33] 75.7% | viability, T/C [34] 86.2% | viability, T/C [10] 76% | viability, T/C [27] 85.7% | viability, T/C [35] 88% | viability, T/C [36] 82.2% | viability, T/C [37] 84.7% | viability, T/C [38] 75.2% | viability, T/C [15] 84.4% | viability, T/C [28] 79.8% | viability, T/C [39] 84.5% | viability, T/C [40] 82.8% | viability, T/C [41] 74.1% | viability, T/C [42] 66.3% | viability, T/C [20] 87.1% | viability, T/C [29] 85.3% | viability, T/C [43] 95.3% | viability, T/C [44] 89.6% | viability, T/C [45] 79% | viability, T/C [46] 49.5% | viability, T/C [25] 85.4% | viability, T/C [30] 93.6% | viability, T/C [47] 84.9% | viability, T/C [48] 84.3% | viability, T/C [49] 59.1%
active: viability, T/C [50] 7.87%

Cn1ncnc1[C@H]1c2n[nH]c(=O)c3cc(F)cc(c23)N[C@@H]1c1ccc(F)cc1 + COc1cc2nc(C)nc(NC(C)c3cc(N)cc(C(F)(F)F)c3)c2cc1OC1CCOC1
> 100 nM: IC50 (second compound 0.1 µM) | IC50 (second compound 0.316 µM) | IC50 (second compound 1 µM) | IC50 (second compound 3.16 µM) | IC50 (second compound 10 µM)
inactive: viability, T/C [1] 85.1% | viability, T/C [2] 82.1% | viability, T/C [3] 86.3% | viability, T/C [4] 73.6% | viability, T/C [5] 76% | viability, T/C [26] 70% | viability, T/C [6] 79.1% | viability, T/C [7] 81.4% | viability, T/C [8] 71.9% | viability, T/C [9] 74.9% | viability, T/C [10] 65.2% | viability, T/C [27] 61.5% | viability, T/C [11] 73.3% | viability, T/C [12] 80.5% | viability, T/C [13] 69% | viability, T/C [14] 67.2% | viability, T/C [15] 63.8% | viability, T/C [28] 58.1% | viability, T/C [16] 79.8% | viability, T/C [17] 71.6% | viability, T/C [18] 69.6% | viability, T/C [19] 64.4% | viability, T/C [20] 65.2% | viability, T/C [29] 61% | viability, T/C [21] 75.1% | viability, T/C [22] 79.8% | viability, T/C [23] 76.8% | viability, T/C [24] 78.4% | viability, T/C [25] 67% | viability, T/C [30] 62.4%

From PubChem BioAssay AID1963869 (Molecular Pharmacology Branch, DTP, NCI, 2024)
